In brackets after ≈: the same amount, converted by molar mass.
conditions: buffer; pH 7.4; 200.0 µM

solubility kinetic	SMILES
< 0.3 µg/mL	COc1ccc(NC(=O)c2cc(-c3ccccc3)on2)cc1OC
< 0.7 µg/mL	CC(=O)c1cn(CCOc2cc(C)ccc2C)c2ccccc12
< 0.2 µg/mL	CCOC(=O)c1ccc(Nc2cc(C)nc(-c3ccccc3)n2)cc1
5.1 µg/mL (≈ 16.5 µM)	CCOC(=O)c1sc(Nc2nc(C)cc(OC)n2)nc1C
> 50.2 µg/mL	Cc1ccc(C(=O)NC(C)C(c2cccs2)N2CCCC2)s1 (stereo not drawn)
6.4 µg/mL (≈ 17 µM)	O=C(COc1ccc(Cl)cc1Br)NC(=O)NC1CCCC1
> 49.9 µg/mL	COc1ccccc1N1CCN(CC(=O)Nc2nccs2)CC1
> 31.1 µg/mL	C=CCNC(=S)Nc1cc(C)ccn1
> 46.7 µg/mL	COc1ccc(CNC(=O)c2cc3ccccc3o2)cc1OC
< 0.6 µg/mL	CCOC(=O)c1sc(NC(=O)OC)c(C(=O)OC)c1C
8.5 µg/mL (≈ 23.5 µM)	COCCNc1nc2c(c(=O)n(Cc3ccccc3F)c(=O)n2C)n1C
2.7 µg/mL (≈ 9.08 µM)	COc1ccc(NC(=O)COc2ccc3c(c2)CCC3)cc1
> 82.1 µg/mL	CCN(C(=O)COC(=O)CCNS(=O)(=O)c1ccccc1F)c1c(N)n(Cc2ccccc2)c(=O)[nH]c1=O
0.8 µg/mL (≈ 2.47 µM)	O=C(OCc1cc2ccccc2[nH]c1=O)c1cccc([N+](=O)[O-])c1
2.4 µg/mL (≈ 9.08 µM)	O=C(Nc1cccc(F)c1)Nc1c[nH]c(=O)[nH]c1=O
< 0.2 µg/mL	COc1ccc2nc(NC(=O)NC3CCCCC3)sc2c1
> 73.7 µg/mL	CCCCn1c(N)c(N(CCOC)C(=O)CSc2nnc(-c3ccco3)n2CC)c(=O)[nH]c1=O
1.5 µg/mL (≈ 4.57 µM)	Cc1cc(C)cc(NS(=O)(=O)c2ccc3[nH]c(=O)ccc3c2)c1
4.8 µg/mL (≈ 16.4 µM)	COc1ccc(C(=O)NC(=S)NC2CCCCC2)cc1
> 41.2 µg/mL	Cc1ccccc1NC(=S)NCc1ccc(F)cc1
> 53.5 µg/mL	COc1ccc(NC(=O)CN2CCN(S(=O)(=O)N(C)C)CC2)cc1
< 0.3 µg/mL	COc1cc2ccccc2cc1C(=O)Nc1ccc(C)cn1
42.9 µg/mL (≈ 137 µM)	COc1cc(C(F)(F)F)ccc1C(=O)NCCc1ccco1
41.5 µg/mL (≈ 135 µM)	O=C(COC(=O)c1ccc[nH]c1=O)NC1CCCCCCC1
42.4 µg/mL (≈ 144 µM)	COc1ccc(NC(=S)N2CCCCCC2)cc1OC

More lines, now with the values behind:

SMILES	solubility kinetic
c1ccc2c(Cn3ccnc3)cccc2c1	30.2 µg/mL (≈ 145 µM)
Cc1ccccc1NS(=O)(=O)c1ccc2oc(=O)ccc2c1	> 47.3 µg/mL
O=C(NCCN1CCOCC1)c1cc2ccccc2oc1=O	> 45.3 µg/mL
Cl.Oc1ccccc1C1NCc2ccccc2-n2cccc21 (stereo not drawn)	32.2 µg/mL
[O-][n+]1c(/C=C/c2ccccc2)ccc2ccccc21	> 37.1 µg/mL
O=c1c2ccccc2nc(/C=C/c2c[nH]c3ccccc23)n1CCO	8.6 µg/mL (≈ 26 µM)
CC(C)N1CCN(Cc2cc3ccccc3[nH]2)CC1CCO (stereo not drawn)	> 45.2 µg/mL
CN=C1C([N+](=O)[O-])=CC=C2C1=NC1(CCCCC1)N2O	10.8 µg/mL (≈ 39.1 µM)
N#C/C(N)=C(/C#N)N=Cc1cccc(Cl)c1	4 µg/mL (≈ 17.3 µM)
O=C1C2CCCN2C(=O)N1CCCN1CCN(c2ccc([N+](=O)[O-])cc2)CC1 (stereo not drawn)	49.4 µg/mL (≈ 128 µM)
CC1CCCCC1Nc1ncnc2sccc12 (stereo not drawn)	> 37.1 µg/mL
CC1C(=O)Nc2ccccc2N1C(=O)c1ccc(F)cc1 (stereo not drawn)	> 42.6 µg/mL
O=C(Nc1ncccc1Cl)c1cc2ccccc2o1	11.4 µg/mL (≈ 41.8 µM)
Cc1cc(C(=O)N2CCCC(Nc3ccc(F)cc3)C2)n(C)n1 (stereo not drawn)	> 47.5 µg/mL
CC(O)CNCc1ccccc1C(F)(F)F.Cl (stereo not drawn)	> 40.5 µg/mL
Cl.Fc1ccc(CNCc2ccc3c(c2)OCO3)cc1	> 44.4 µg/mL
COCCNc1oc(/C=C/c2ccccc2)nc1C#N	> 40.4 µg/mL
O=c1cc(COc2ncnc3ccccc23)nc2sccn12	> 46.5 µg/mL
N#C/C(=C\c1cccnc1)c1ccccc1[N+](=O)[O-]	8 µg/mL (≈ 31.8 µM)
N#CC1(CCCN2CCCCC2)c2ccccc2CCc2ccccc21.O=C(O)C(=O)O	> 65.2 µg/mL
C[N+]1(C)C2CCC1CC(OC(=O)c1ccco1)C2.[Br-] (stereo not drawn)	48.5 µg/mL
CN1CCN(NC(=O)NC2CCCCC2)CC1	> 36.1 µg/mL
O=C(O)C(Cc1ccccc1)n1c(=S)[nH]c2ccccc2c1=O (stereo not drawn)	> 49 µg/mL
